# Measurements reported in patent US6831199B1, “Pyrimidine compounds and derivatives thereof” (G. D. Searle & Co., priority 1995, dated 2004).
# Structures can show the parent of a compound that is named as a salt.
# Target: T1, Human fibrinogen receptor (αIIbβ3) (Homo sapiens, UniProt P05106+P08514)
# T1 construct: Human fibrinogen receptor (αIIbβ3) was purified from outdated platelets; from tissue; host or cells: outdated human platelets
# Assay: Purified IIb/IIIa receptor assay (solid phase receptor assay, competition with biotinylated vitronectin)
# Format: binding
# Settings: read-out: IIb/IIIa IC50
# Outline: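 Competition format: 1 nM biotinylated vitronectin plus test compound (highest 1.0×10^−4 M), 2 h at room temperature on wells coated with platelet-derived αIIbβ3. Buffer was TBS containing 1.0 mM Ca, Mg, Mn, pH 7.4. HRP anti-biotin readout at 450 nm; normalized to maximum binding, four-parameter curve fit.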
# T1 sequence (P08514 32-887 limits assumed): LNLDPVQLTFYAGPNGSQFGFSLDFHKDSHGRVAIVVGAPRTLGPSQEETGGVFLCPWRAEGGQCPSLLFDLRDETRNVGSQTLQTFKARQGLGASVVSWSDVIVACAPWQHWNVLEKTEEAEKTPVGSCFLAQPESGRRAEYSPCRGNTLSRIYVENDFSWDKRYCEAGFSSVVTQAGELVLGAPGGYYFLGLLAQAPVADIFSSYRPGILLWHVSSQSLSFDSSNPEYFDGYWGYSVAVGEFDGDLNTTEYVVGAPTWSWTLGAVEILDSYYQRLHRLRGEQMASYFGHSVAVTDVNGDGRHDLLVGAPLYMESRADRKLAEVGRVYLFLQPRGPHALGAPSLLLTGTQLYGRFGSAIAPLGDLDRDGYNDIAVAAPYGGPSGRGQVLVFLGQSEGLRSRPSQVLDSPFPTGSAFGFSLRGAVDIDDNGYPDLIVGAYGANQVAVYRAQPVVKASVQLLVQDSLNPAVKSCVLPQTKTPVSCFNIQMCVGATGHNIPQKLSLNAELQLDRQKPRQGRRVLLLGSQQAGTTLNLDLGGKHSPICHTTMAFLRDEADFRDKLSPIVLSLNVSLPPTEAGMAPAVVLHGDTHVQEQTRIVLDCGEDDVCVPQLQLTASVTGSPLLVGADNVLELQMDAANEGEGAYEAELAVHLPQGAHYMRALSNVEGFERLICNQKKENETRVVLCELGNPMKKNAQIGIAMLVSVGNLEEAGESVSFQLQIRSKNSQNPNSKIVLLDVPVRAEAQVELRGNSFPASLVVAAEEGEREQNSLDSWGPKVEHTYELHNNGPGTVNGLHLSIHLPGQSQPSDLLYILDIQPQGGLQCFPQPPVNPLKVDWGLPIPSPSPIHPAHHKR
# T1 sequence (P08514 891-1039 limits assumed): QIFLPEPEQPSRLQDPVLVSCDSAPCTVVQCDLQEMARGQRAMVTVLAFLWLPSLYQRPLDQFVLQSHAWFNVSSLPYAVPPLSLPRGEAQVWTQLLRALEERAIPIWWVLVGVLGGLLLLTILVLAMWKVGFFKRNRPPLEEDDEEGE
# T1 sequence (P05106 27-788): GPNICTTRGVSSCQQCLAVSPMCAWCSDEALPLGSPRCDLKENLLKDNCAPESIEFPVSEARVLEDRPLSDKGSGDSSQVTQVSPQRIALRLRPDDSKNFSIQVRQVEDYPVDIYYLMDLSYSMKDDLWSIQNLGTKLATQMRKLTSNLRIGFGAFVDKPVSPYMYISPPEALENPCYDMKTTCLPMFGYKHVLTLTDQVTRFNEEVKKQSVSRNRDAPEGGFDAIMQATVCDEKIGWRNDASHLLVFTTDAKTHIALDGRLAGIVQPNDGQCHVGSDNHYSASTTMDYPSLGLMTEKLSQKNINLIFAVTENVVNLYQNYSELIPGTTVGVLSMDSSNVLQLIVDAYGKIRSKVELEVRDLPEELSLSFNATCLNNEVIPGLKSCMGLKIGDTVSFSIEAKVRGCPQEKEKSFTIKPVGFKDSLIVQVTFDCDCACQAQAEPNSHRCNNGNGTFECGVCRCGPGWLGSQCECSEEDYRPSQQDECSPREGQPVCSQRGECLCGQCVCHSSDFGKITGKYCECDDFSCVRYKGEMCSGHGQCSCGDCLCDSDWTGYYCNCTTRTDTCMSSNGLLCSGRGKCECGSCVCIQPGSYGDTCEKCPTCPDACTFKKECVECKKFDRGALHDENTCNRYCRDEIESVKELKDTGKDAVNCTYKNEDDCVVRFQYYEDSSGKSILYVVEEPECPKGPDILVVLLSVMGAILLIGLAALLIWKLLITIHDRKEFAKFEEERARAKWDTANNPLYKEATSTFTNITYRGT
row,Compound,IC50 [nM]
1,"N=C(N)Nc1cccc(C(=O)NCC(=O)NC(CCS(=O)(=O)c2ccccc2C(=O)O)CC(=O)O)c1 (racemic) [60(C), (±)2-[3-[[2-[[[3-[(aminoiminomethyl)amino]phenyl]carbonyl]amino]acetyl]amino]-4-carboxybutyl]sulfonyl]benzoic acid, trifluoroacetate]",16.4
2,"N=C(N)Nc1cccc(C(=O)NCC(=O)NC(CC(=O)O)c2ccccc2)c1 (racemic) [Example 4, (±)β-[[2-[[[3-[(aminoiminomethyl)amino]phenyl]carbonyl]amino]acetyl]amino]benzene-propanoic acid, trifluoroacetate salt]",473
3,"N=C(N)Nc1cc(C(=O)NCC(=O)NC(CC(=O)O)c2cccnc2)c2ccccc2c1 (racemic) [Example 8, (±)β-[[2-[[[3-[(aminoiminomethyl)amino]naphthalen-1-yl]carbonyl]amino]acetyl]amino]pyridine-3-propanoic acid, bis(trifluoroacetate)salt]",9.83
4,"O=C(O)CC(NC(=O)CNC(=O)c1cccc(NC2=NCCN2)c1)c1cccnc1 (racemic) [Example 10, (±)β-[[2-[[[3-[(4,5-dihydro-1H-imidazol-2-yl)amino]phenyl]carbonyl]amino]acetyl]amino]pyridine-3-propanoic acid, bis(trifluoroacetate)salt]",54.4
5,"O=C(O)CC(NC(=O)CNC(=O)c1cccc(NC2=NCCCCC2)c1)c1cccnc1 (racemic) [Example 12, (±)β-[[2-[[[3-[(3,4,5,6-tetrahydro-2H-azepin-7-yl)amino]phenyl]carbonyl]amino]acetyl]amino]pyridine-3-propanoic acid, bis(trifluoroacetate)salt]",595
6,"O=C(O)CC(NC(=O)CNC(=O)c1cccc(NC2=NCCCCC2)c1)c1ccc2c(c1)OCO2 (racemic) [Example 14, (±)β-[[2-[[[3-[(3,4,5,6-tetrahydro-2H-azepin-7-yl)amino]phenyl]carbonyl]amino]acetyl]amino]-1,3-benzodioxole-5-propanoic acid, TFA salt]",139
7,"O=C(O)CC(NC(=O)CNC(=O)c1cccc(NC2=NCCCCC2)c1)c1ccccc1 (racemic) [Example 15, (±)β-[[2-[[[3-[(3,4,5,6-tetrahydro-2H-azepin-7-yl)amino]phenyl]carbonyl]amino]acetyl]amino]benzenepropanoic acid, trifluoroacetate salt]",3830
8,"N=C(NCc1ccccc1)Nc1cccc(C(=O)NCC(=O)NC(CC(=O)O)c2cccnc2)c1 (racemic) [Example 24, (±)β-[[2-[[[3-[[imino[(phenylmethyl)amino]methyl]amino]phenyl]carbonyl]amino]acetyl]amino]pyridine-3-propanoic acid, bis(trifluoroacetate)salt]",58.6
9,"N=C(N)Nc1cccc(C(=O)NCC(=O)NC(CC(=O)O)c2cc(C(F)(F)F)cc(C(F)(F)F)c2)c1 (racemic) [Example 36, (±)β-[[2-[[[3-[(aminoiminomethyl)amino]phenyl]carbonyl]amino]acetyl]amino]-3,5-bis(trifluoromethyl)benzenepropanoic acid, trifluoroacetate salt]",1580
10,"O=C(O)CC(NC(=O)CNC(=O)c1cccc(NC(=O)NCc2ccccc2)c1)c1cccnc1 (racemic) [Example 47, (±)β-[[2-[[[3-[[[(phenylmethyl)amino]carbonyl]amino]phenyl]carbonyl]amino]acetyl]amino]pyridine-3-propanoic acid, hydrochloride salt]",4270
11,"N=C(N)Nc1cccc(C(=O)NCC(=O)NC(CC(=O)O)c2ccoc2)c1 (racemic) [Example 52, (±)β-[[2-[[[3-[(aminoiminomethyl)amino]phenyl]carbonyl]amino]acetyl]amino]furan-3-propanoic acid, trifluoroacetate salt]",139
12,"N=C(N)Nc1cccc(C(=O)NCC(=O)NC(CC(=O)O)c2ccc3ccccc3c2)c1 (racemic) [Example 56, (±)β-[[2-[[[3-[(aminoiminomethyl)amino]phenyl]carbonyl]amino]acetyl]amino]naphthalene-2-propanoic acid, trifluoroacetate salt]",65.3
13,"N=C(N)Nc1cccc(C(=O)NCC(=O)NC(CC(=O)O)c2ccsc2)c1 (racemic) [Example 59, (±)β-[[2-[[[3-[(aminoiminomethyl)amino]phenyl]carbonyl]amino]acetyl]amino]thiophene-3-propanoic acid, trifluoroacetate salt]",172
14,"N=C(N)Nc1cccc(C(=O)NCC(=O)NC(CC(=O)O)c2cccs2)c1 (racemic) [Example 61, (±)β-[[2-[[[3-[(aminoiminomethyl)amino]phenyl]carbonyl]amino]acetyl]amino]thiophene-2-propanoic acid, trifluoroacetate salt]",192
15,"Cc1ccc(SCCC(CC(=O)O)NC(=O)CNC(=O)c2cccc(NC(=N)N)c2)cc1 (racemic) [Example 66, (±)3-[[2-[[[3-[(aminoiminomethyl)amino]phenyl]carbonyl]amino]acetyl]amino]-5-[(4-methylphenyl)thio]pentanoic acid, trifluoroacetate salt]",73.7
16,"Cc1ccc(S(=O)(=O)CCC(CC(=O)O)NC(=O)CNC(=O)c2cccc(NC(=N)N)c2)cc1 (racemic) [Example 67, (±)3-[[2-[[[3-[(aminoiminomethyl)amino]phenyl]carbonyl]amino]acetyl]amino]-5-[(4-methylphenyl)sulfonyl]pentanoic acid, trifluoroacetate salt]",92.3
17,"Cc1ccc(C(=O)NCC(=O)NC(CC(=O)O)c2cccnc2)cc1NC(=N)N (racemic) [Example 83, (±)β-[[2-[[[3-[(aminoiminomethyl)amino]-4-methylphenyl]carbonyl]amino]acetyl]amino]pyridine-3-propanoic acid, bis(trifluoroacetate)salt]",97.7
18,"Cc1ccc(O)c(C(CC(=O)O)NC(=O)CNC(=O)c2cccc(NC(=N)N)c2)c1 (racemic) [Example 88, (±)β-[[2-[[[3-[(aminoiminomethyl)amino]phenyl]carbonyl]amino]acetyl]amino]-2-hydroxy-5-methylbenzenepropanoic acid, trifluoroacetate salt]",945
19,"O=C(O)CC(NC(=O)CNC(=O)c1cccc(NC2=NCCC2)c1)c1cccnc1 (stereo not drawn) [Example 17, β-[[2-[[[3-[(3,4-dihydro-2H-pyrrol-5-yl)amino]phenyl]carbonyl]amino]acetyl]amino]pyridine-3-propanoic acid, bis(trifluoroacetate)salt]",137
20,"C#C[C@H](CC(=O)O)NC(=O)CNC(=O)c1cccc(NC2=NCCCCC2)c1 [Example 30, βS-[[2-[[[3-[(3,4,5,6-tetrahydro-2H-azepin-7-yl)amino]phenyl]carbonyl]amino]acetyl]amino]-4-pentynoic acid, trifluoroacetate salt]",424
21,"C#C[C@@H](CC(=O)O)NC(=O)CNC(=O)c1cccc(NC(=N)N)c1 [Example 43, 3R-[[2-[[[(3-[(aminoiminomethyl)amino]phenyl]carbonyl]amino]acetyl]amino]-4-pentynoic acid, hydrochloride salt]",1640
22,"C#C[C@H](CC(=O)O)NC(=O)CNC(=O)c1cccc(NC(=N)N)c1 [Example 45, 3S-[[2-[[[3-[(aminoiminomethyl)amino]phenyl]carbonyl]amino]acetyl]amino]-4-pentynoic acid, hydrochloride salt]",39.5
23,"NC(=O)Nc1cccc(C(=O)NCC(=O)NC(CC(=O)O)c2cccnc2)c1 (stereo not drawn) [Example 46, β-[[2-[[[3-(aminocarbonylamino)phenyl]carbonyl]amino]acetyl]amino]pyridine-3-propanoic acid, hydrochloride salt]",1680
24,"Cc1ccc(S(=O)(=O)NCC(CC(=O)O)NC(=O)CNC(=O)c2cccc(NC(=N)N)c2)cc1 (stereo not drawn) [Example 65, 3-[[2-[[[3-[(aminoiminomethyl)amino]phenyl]carbonyl]amino]acetyl]amino]-4-[[(4-methylphenyl)sulfonyl]amino]butanoic acid, trifluoroacetate salt]",170
25,"N=C(N)Nc1cccc(C(=O)NCC(=O)N[C@@H](CC(=O)O)CS(=O)(=O)c2ccccc2C(=O)O)c1 [Example 71, 2-[[2S-[[2-[[[3-[(aminoiminomethyl)amino]phenyl]carbonyl]amino]acetyl]amino]-2-(carboxymethyl)ethyl]sulfonyl]benzoic acid, TFA salt]",202
26,"N=C(N)Nc1cccc(C(=O)NCC(=O)NC(CC(=O)O)c2cnc3ccccc3c2)c1 (stereo not drawn) [Example 99, β-[[2-[[[3-[(aminoiminomethyl)amino]phenyl]carbonyl]amino]acetyl]amino]quinoline-3-propanoic acid, bis(trifluoroacetate)salt]",1.89
27,"NC(=S)Nc1cccc(C(=O)NCC(=O)NC(CC(=O)O)c2cccnc2)c1 (stereo not drawn) [Example 114, β-[[2-[[[3-[(aminothioxomethyl)amino]phenyl]carbonyl]amino]acetyl]amino]pyridine-3-propanoic acid, trifluoroacetate salt]",2940
